Values of other authors as cited in patent US20110250279A1, “CONTROLLED-RELEASE COMPOSITION FOR PRODUCING SUSTAINED-RELEASE PREPARATION CONTAINING UDENAFIL” (Dong-A Pharm. Co., Ltd., priority 2008, published 2011).

How the values were obtained:
PDE-5 = PDE-5 (Homo sapiens, UniProt O76074)
[1] = phase 1 clinical tests (Koreans and Caucasians)
[2] = not given; remark: listed apart in the source

For `CCCOc1ccc(S(=O)(=O)NCCC2CCCN2C)cc1-c1nc2c(CCC)nn(C)c2c(=O)[nH]1` (stereo not drawn) [Udenafil, 3-(1-methyl-7-oxo-3-propyl-4,7-dihydro-1H-pyrazolo[4,3-d]pyrimidin-5-yl)-N-[2-(1-methylpyrrolidin-2-yl)ethyl]-4-propoxybenzenesulfonamide], the “inhibitory activity for PDE-5” value (PDE-5) is listed as “strong inhibitory activity”, the “selectivity for PDE-5” value (PDE-5) is listed as “high selectivity” and the “serious abnormal reactions by drugs” value [1] is listed as “did not generate serious abnormal reactions”. For the same compound, the “volume of distribution in vivo” value was “large volume of distribution”, the absorption (in vivo) was “rapidly absorbed” and the bioavailability (in vivo) was “high bioavailability”. The “half life relative to sildenafil or vardenafil” value (in vivo) was “about three times longer”, the drug discontinuation rate ([2]; during the clinical tests) was “lowest” and the “extent and frequency of side effects” value ([2]; phase 2 and 3 clinical tests, versus conventional oral therapeutic agents for erectile dysfunction) was “lower”.
